US20040211730A1, “Methods and compounds for controlling the morphology and shrinkage of silica derived from polyol-modified silanes” (priority 2002, published 2004)
Where two headings read alike, the source gives them in different places.

Target: T1, Dihydrofolate reductase (DHFR) (Escherichia coli, UniProt P0ABQ4)
T1 construct: gift of Professor Eric Brown (McMaster University)
Assay type: binding, E. coli
Settings: for retention (elution) time: FIG. 19 Panel B, column with 50 pmol DHFR initial loading, compounds infused at 20 nM, fluorescein 100 nM; for elution time: first run
Method: A second aqueous solution of 50 mM HEPES at pH 7.5 was prepared containing 16% (w/v) PEO (MW=10 000) and 0.6% (v/v) APTES. This aqueous solution also contained ca. 20 μM of DHFR. […] The mixture underwent spinodal decomposition (phase separation) in about 2-3 min followed by silica polymerization (˜10 min) to generate a hydrated macroporous monolithic column containing entrapped protein. After loading the sol-gel mixture, the monolithic columns were aged for a minimum of 5 days at 4 C and then cut into 10 cm lengths before use. In some cases, the APTES present in the columns was replaced with a final concentration of either 0.03% polyallylamine (PAM, MW 17,000) or 0.3% dimethyldimethoxysilane (DMDMS) to examine the effects of surface derivatization on non-selective retention.
Syringe pumps (Harvard Instruments PhD 2000) were used to deliver solutions, and a flow-switching valve was used to toggle between the assay buffer and the solution containing the compound mixture. This solution was then pumped through the column to achieve equilibrium. Effluent was combined with suitable organic modifiers to assist in the generation of a stable electrospray and detectability of the sprayed components using a triple-quadrupole MS system (Sciex API 3000). This configuration allows for maximum flexibility in compound introduction. Full operation of FAC-MS methods requires frequent flow switching between two solutions connected to the head of the column. An Upchurch microinjection valve allows syringe contents to be exchanged during operation. […] All other connections between components were achieved using fused silica tubing.
Before the first run, the column was flushed with 0.05 M NH4OAc buffer (pH 6.6, 100 mM NaCl) for 30 min at different flow rates (from 1 to 5 μL.min^−1) to remove any glycerol and non-entrapped protein and then equilibrated with 2 mM NH4OAc for 30 min at different flow rates (from 1 to 5 μL.min^−1). All compounds tested were present in 2 mM NH4OAc and were delivered at a rate of 5 μL.min^−1 using the syringe pump. The makeup flow (used to assist in the generation of a stable electrospray) consisted of methanol containing 10% (v/v) NH4OAc buffer (2 mM) and was delivered at 5 μL.min^−1.
In each case, the data were fit to the following equation:^17 [formula]
where V0 is the void volume (μL), V is the retention volume (μL), [A] is the analyte concentration (μM), Kd is the binding constant of the ligand to the protein (μM) and Bt is the total picomoles of active protein in the column.

[1] = FIG. 21 Panel A, in 2 mM ammonium acetate
[2] = FIG. 21 Panel B, second column cut from the same capillary, same infusion

| Structure (SMILES) | retention (elution) time | elution time [1] | elution time [2] |
| --- | --- | --- | --- |
| O=c1ccc2ccccc2o1 [coumarin] | 2 min | 2.7 min | 2.6 min |
| Nc1nc2ncc(CNc3ccc(C(=O)N[C@@H](CCC(=O)O)C(=O)O)cc3)nc2c(=O)[nH]1 [folic acid] | 7 min | 8.9 min | 8.4 min |
